The structures appear in SMILES notation. Where only a bound is given, the exact number is not on record here.

Data on 18 molecules can be found in patent US20230374038A1, “MODULATORS OF CYSTIC FIBROSIS TRANSMEMBRANE CONDUCTANCE REGULATOR” (VERTEX PHARMACEUTICALS INCORPORATED, priority 2020, published 2023).

Series [1] addresses T1, F508del (Homo sapiens, UniProt P13569, DEL508-508).
T1 construct: expressed in transfected cells; host or cells: NIH3T3 mouse fibroblasts
Kind of series: 3T3 Assay: membrane potential optical assay for F508del correctors in NIH 3T3 cells. In kind it is cell-based. As to conditions: for EC50: F508del corrector assay; for Emax: NIH3T3, F508del corrector assay, read-out: 3T3 Max Activity. From the text:
The assay utilizes fluorescent voltage sensing dyes to measure changes in membrane potential using a fluorescent plate reader (e.g., FLIPR III, Molecular Devices, Inc.) as a readout for increase in functional F508del in NIH 3T3 cells. The driving force for the response is the creation of a chloride ion gradient in conjunction with channel activation by a single liquid addition step after the cells have previously been treated with compounds and subsequently loaded with a voltage sensing dye.
To identify correctors of F508del, a single-addition HTS assay format was developed. This HTS assay utilizes fluorescent voltage sensing dyes to measure changes in membrane potential on the FLIPR III as a measurement for increase in gating (conductance) of F508del in F508del NIH 3T3 cells. The F508del NIH 3T3 cell cultures were incubated with the corrector compounds at a range of concentrations for 18-24 hours at 37° C., and subsequently loaded with a redistribution dye. The driving force for the response is a Cl^− ion gradient in conjunction with channel activation with forskolin in a single liquid addition step using a fluorescent plate reader such as FLIPR III.
Bath Solution #1: (in mM) NaCl 160, KCl 4.5, CaCl2) 2, MgCl2 1, HEPES 10, pH 7.4 with NaOH.
Chloride-free bath solution: Chloride salts in Bath Solution #1 (above) are substituted with gluconate salts.
NIH3T3 mouse fibroblasts stably expressing F508del are used for optical measurements of membrane potential. The cells are maintained at 37° C. in 5% CO2 and 90% humidity in Dulbecco's modified Eagle's medium supplemented with 2 mM glutamine, 10% fetal bovine serum, 1×NEAA, b-ME, 1× pen/strep, and 25 mM HEPES in 175 cm^2 culture flasks. For all optical assays, the cells were seeded at ˜20,000/well in 384-well matrigel-coated plates. For the correction assays, the cells are cultured at 37° C. with and without compounds for 16-24 hours.

In series [2] the target is T2, CFTR (Homo sapiens, UniProt P13569, DEL508-508).
T2 construct: endogenous in cells; host or cells: primary human bronchial epithelial cells, F508del/MF genotype
Kind of series: HBE2 Assay: Ussing chamber assay of CFTR-mediated short-circuit currents in F508del/MF-HBE cells with 44 nM (6R,12R)-17-amino-12-methyl-6,15-bis(trifluoromethyl)-13,19-dioxa-3,4,18-triazatricyclo[12.3.1.12,5]nonadeca-1(18),2,4,14,16-pentaen-6-ol. The series is classed as cell-based. The conditions noted are these: 3 μM with 44 nM (6R,12R)-17-amino-12-methyl-6,15-bis(trifluoromethyl)-13,19-dioxa-3,4,18-triazatricyclo[12.3.1.12,5]nonadeca-1(18),2,4,14,16-pentaen-6-ol, 18-24 hours, 20% human serum. How it is done:
Ussing chamber experiments were performed using human bronchial epithelial (HBE) cells derived from CF subjects heterozygous for F508del and a minimal function CFTR mutation (F508del/MF-HBE) and cultured as previously described (Neuberger T, Burton B, Clark H, Van Goor F Methods Mol Biol 2011:741:39-54). After four days the apical media was removed, and the cells were grown at an air liquid interface for >14 days prior to use.
To isolate the CFTR-mediated short-circuit (ISC) current, F508del/MF-HBE grown on Costar® Snapwell™ cell culture inserts were mounted in an Ussing chamber and the transepithelial ISC was measured under voltage-clamp recording conditions (Vhold=0 mV) at 37° C. The basolateral solution contained (in mM) 145 NaCl, 0.83 K2HPO4, 3.3 KH2PO4, 1.2 MgCl2, 1.2 CaCl2), 10 Glucose, 10 HEPES (pH adjusted to 7.4 with NaOH) and the apical solution contained (in mM) 145 NaGluconate, 1.2 MgCl2, 1.2 CaCl2), 10 glucose, 10 HEPES (pH adjusted to 7.4 with NaOH) and 30 μM amiloride to block the epithelial sodium channel. Forskolin (20 μM) was added to the apical surface to activate CFTR, followed by apical addition of a CFTR inhibitor cocktail consisting of BPO, GlyH-101, and CFTR inhibitor 172 (each at 20 μM final assay concentration) to specifically isolate CFTR currents. The CFTR-mediated ISC (μA/cm^2) for each condition was determined from the peak forskolin response to the steady-state current following inhibition.
The activity of the CFTR corrector compounds on the CFTR-mediated ISC was determined in Ussing chamber studies as described above. The F508del/MF-HBE cell cultures were either incubated with the corrector compounds at a range of concentrations in combination with 44 nM (6R,12R)-17-amino-12-methyl-6,15-bis(trifluoromethyl)-13,19-dioxa-3,4,18-triazatricyclo[12.3.1.12,5]nonadeca-1(18),2,4,14,16-pentaen-6-ol or were incubated with the corrector compounds at a single fixed concentration of 1 and 3 μM in combination with 44 nM (6R,12R)-17-amino-12-methyl-6,15-bis(trifluoromethyl)-13,19-dioxa-3,4,18-triazatricyclo[12.3.1.12,5]nonadeca-1(18),2,4,14,16-pentaen-6-ol for 18-24 hours at 37° C. and in the presence of 20% human serum. The concentration of corrector compounds with 44 nM (6R,12R)-17-amino-12-methyl-6,15-bis(trifluoromethyl)-13,19-dioxa-3,4,18-triazatricyclo[12.3.1.12,5]nonadeca-1(18),2,4,14,16-pentaen-6-ol during the 18-24 hours incubations was kept constant throughout the Ussing chamber measurement of the CFTR-mediated ISC to ensure compounds were present throughout the entire experiment.

Series [3] deals with T3, CFTR (Homo sapiens, UniProt P13569). Kind of series: Membrane Potential Dye, Enteroid Assay A. The series is classed as cell-based. The conditions noted are these: for EC50: read-out: Ent. A EC50.
For series [4] the following is noted: from Cc1cccc(C)c1-c1nc(NS(=O)(=O)c2cccc(C(=O)O)c2)nc(OC[C@H](N)CC(C)C)c1OC(C)C; amide bond; 13-membered ring; HATU/Et3N; DMF; 12.0 mM; 0.5 h; 2 steps.
Series [5] deals with T3, CFTR. Kind of series: Membrane Potential Dye, Enteroid Assay B. In kind it is cell-based. Summed up: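 Human intestinal enteroids seeded at 5000 cells/well, treated with compound 18-24 h at 37 °C, then loaded 25 min with methyl oxonol membrane-potential dye plus CaCC blockers. Chloride transport started in chloride-free buffer with 10 μM forskolin, 100 μM IBMX and 300 nM Compound III, read 15 min; expressed as % of triple-combination control.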

T3 sequence (P13569 with tags, fused parts or gaps DEL508-508): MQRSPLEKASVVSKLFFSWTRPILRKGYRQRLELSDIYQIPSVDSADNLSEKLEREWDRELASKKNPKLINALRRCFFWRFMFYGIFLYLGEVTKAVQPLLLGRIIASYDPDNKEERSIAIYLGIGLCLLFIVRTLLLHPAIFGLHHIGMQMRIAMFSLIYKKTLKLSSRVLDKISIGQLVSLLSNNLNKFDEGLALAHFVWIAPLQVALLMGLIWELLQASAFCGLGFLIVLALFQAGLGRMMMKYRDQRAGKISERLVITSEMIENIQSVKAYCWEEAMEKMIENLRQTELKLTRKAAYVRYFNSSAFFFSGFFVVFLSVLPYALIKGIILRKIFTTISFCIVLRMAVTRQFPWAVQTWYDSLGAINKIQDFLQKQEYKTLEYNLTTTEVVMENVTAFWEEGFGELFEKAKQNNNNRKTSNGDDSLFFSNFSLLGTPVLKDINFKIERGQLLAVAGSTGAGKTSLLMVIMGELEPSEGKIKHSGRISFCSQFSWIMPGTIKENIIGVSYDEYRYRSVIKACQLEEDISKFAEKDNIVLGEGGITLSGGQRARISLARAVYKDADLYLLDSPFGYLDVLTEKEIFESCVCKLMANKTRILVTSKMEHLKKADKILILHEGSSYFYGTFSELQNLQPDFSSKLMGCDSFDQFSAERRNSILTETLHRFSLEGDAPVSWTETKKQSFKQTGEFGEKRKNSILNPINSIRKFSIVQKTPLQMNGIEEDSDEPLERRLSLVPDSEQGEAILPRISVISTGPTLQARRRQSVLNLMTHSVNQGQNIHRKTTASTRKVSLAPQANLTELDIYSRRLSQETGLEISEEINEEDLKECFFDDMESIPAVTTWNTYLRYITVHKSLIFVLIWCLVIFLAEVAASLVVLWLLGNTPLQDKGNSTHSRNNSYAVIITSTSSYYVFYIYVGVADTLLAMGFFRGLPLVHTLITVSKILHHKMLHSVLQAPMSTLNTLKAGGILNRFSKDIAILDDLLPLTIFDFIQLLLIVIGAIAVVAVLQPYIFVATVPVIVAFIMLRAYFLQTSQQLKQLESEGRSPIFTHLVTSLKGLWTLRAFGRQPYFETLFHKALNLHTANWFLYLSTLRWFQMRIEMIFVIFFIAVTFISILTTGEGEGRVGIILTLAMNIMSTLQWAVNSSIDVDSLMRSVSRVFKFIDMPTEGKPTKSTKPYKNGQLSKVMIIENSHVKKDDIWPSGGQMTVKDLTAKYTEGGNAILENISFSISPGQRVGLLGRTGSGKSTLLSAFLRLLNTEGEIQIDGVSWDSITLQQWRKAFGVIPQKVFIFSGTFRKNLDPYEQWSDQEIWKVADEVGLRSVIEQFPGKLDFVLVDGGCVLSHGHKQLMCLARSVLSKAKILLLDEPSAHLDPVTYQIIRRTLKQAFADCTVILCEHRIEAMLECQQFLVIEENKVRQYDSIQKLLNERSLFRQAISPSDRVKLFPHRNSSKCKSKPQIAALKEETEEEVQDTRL
T1 sequence (P13569 with tags, fused parts or gaps DEL508-508): as above
T2 sequence (P13569 with tags, fused parts or gaps DEL508-508): as above

`CCc1c2nc(nc1-c1c(C)cc(C)cc1C)NS(=O)(=O)c1cccc(c1)NC(=O)c1cccc(c1)O2` [Compound 19]: in series [1], the EC50 – broadly, the concentration at which the effect is half-maximal – was below 1000 nM and the Emax is above 60%.
Take `Cc1cccc(C)c1-c1nc2nc(c1F)OC[C@@H](CCC(C)(C)C)N(Cc1cncc(N3CCCC[C@H]3C)n1)C(=O)c1cccc(c1)S(=O)(=O)N2` [Compound 367]: the “HBE2 Activity at 3 μM (%)” value in series [2] is “+++ (+++ is >60%)”.
`CCc1c2nc(nc1-c1ccccc1COC)NS(=O)(=O)c1cccc(c1)NC(=O)c1cccc(c1)O2` [Compound 12]: in series [1], the concentration for a half-maximal effect (EC50) was below 1000 nM and the Emax is above 60%.
In the case of `CCc1c2nc(nc1-c1ccccc1COCCOC)NS(=O)(=O)c1cccc(c1)NC(=O)c1cccc(c1)O2` [Compound 11], in series [1], the EC50 was below 1000 nM and the Emax was above 60%.
Consider `CCc1c2nc(nc1-c1ccc([S+](C)[O-])cc1)NS(=O)(=O)c1cccc(c1)NC(=O)c1cccc(c1)O2` (stereo not drawn) [Compound 18], for which the Emax in series [1] was below 30%.
On to `Cc1ccc2cc1Oc1nc(nc(-c3c(C)cccc3C)c1Cl)NS(=O)(=O)c1cccc(c1)NC2=O` [Compound 8], for which, in series [1], the EC50 is below 1000 nM and the Emax was above 60%.
Regarding `CCc1c2nc(nc1-c1ccccc1OC(C)C)NS(=O)(=O)c1cccc(c1)NC(=O)c1cccc(c1)O2` [Compound 29], in series [1], the EC50 was below 1000 nM and the Emax is above 60%. For the same molecule, the “Ent. A Max Activity” value in series [3] is recorded as “+ (+ is <30%)”.
On to `CCc1c2nc(nc1-c1ccccc1CC(C)C)NS(=O)(=O)c1cccc(c1)NC(=O)c1cccc(c1)O2` [Compound 3, 4-Ethyl-5-(2-isobutylphenyl)-9,9-dioxo-2-oxa-9λ^6-thia-6,8,15,23-tetrazatetracyclo[15.3.1.13,7.110,14]tricosa-1(21),3,5,7(23),10,12,14(22),17,19-nonaen-16-one], for which, in series [1], the EC50 was below 1000 nM and the Emax was above 60%. Also, in series [3], the “Ent. A Max Activity” value was “+++ (+++ is >60%)” and the EC50 was below 1000 nM.
Take `CCc1c2nc(nc1-c1cccc(C)c1C)NS(=O)(=O)c1cccc(c1)NC(=O)c1cccc(c1)O2` [Compound 17]: in series [1], the EC50 is below 1000 nM and the Emax is above 60%.
Take `CCc1c2nc(nc1-c1ccccc1C(C)C)NS(=O)(=O)c1cccc(c1)NC(=O)c1cc(ccc1Cl)O2` [Compound 5, 18-Chloro-4-ethyl-5-[2-(propan-2-yl)phenyl]-2-oxa-9λ^6-thia-6,8,15,23-tetraazatetracyclo[15.3.1.13,7.110,14]tricosa-1(20),3(23),4,6,10(22),11,13,17(21),18-nonaene-9,9,16-trione]: in series [1], the EC50 is below 1000 nM and the Emax is above 60%. Moreover, in series [3], the “Ent. A Max Activity” value is “+++ (+++ is >60%)” and the EC50 was below 1000 nM.
Take `CCc1c2nc(nc1-c1c(C)cccc1C)NS(=O)(=O)c1cccc(c1)NC(=O)c1cccc(c1)O2` [Compound 4, 5-(2,6-Dimethylphenyl)-4-ethyl-9,9-dioxo-2-oxa-9λ^6-thia-6,8,15,23-tetrazatetracyclo[15.3.1.13,7.110,14]tricosa-1(21),3,5,7(23),10,12,14(22),17,19-nonaen-16-one]: in series [1], the EC50 was below 1000 nM and the Emax was above 60%. In addition, in series [3], the “Ent. A Max Activity” value was “+++ (+++ is >60%)” and the EC50 lay in the range of 1000 to 3000 nM.
For `CCc1c2nc(nc1-c1c(C)c(C)c(C)c(C)c1C)NS(=O)(=O)c1cccc(c1)NC(=O)c1cccc(c1)O2` [Compound 2, 4-Ethyl-9,9-dioxo-5-(2,3,4,5,6-pentamethylphenyl)-2-oxa-9λ^6-thia-6,8,15,23-tetrazatetracyclo[15.3.1.13,7.110,14]tricosa-1(21),3,5,7(23),10,12,14(22),17,19-nonaen-16-one], in series [1], the EC50 is below 1000 nM and the Emax was above 60%.
On to `CCc1c2nc(nc1-c1ccccc1C1CCC1)NS(=O)(=O)c1cccc(c1)NC(=O)c1cccc(c1)O2` [Compound 1, 5-(2-Cyclobutylphenyl)-4-ethyl-9,9-dioxo-2-oxa-9λ^6-thia-6,8,15,23-tetrazatetracyclo[15.3.1.13,7.110,14]tricosa-1(21),3,5,7(23),10,12,14(22),17,19-nonaen-16-one], for which, in series [1], the EC50 was below 1000 nM and the Emax is above 60%. Moreover, in series [3], the “Ent. A Max Activity” value was “++ (++ is 30-60%)” and the concentration giving a half-maximal response (EC50) is below 1000 nM.
As to `Cc1cccc(C)c1-c1nc2nc(c1OC(C)C)OC[C@@H](CC(C)C)NC(=O)c1cccc(c1)S(=O)(=O)N2` [Compound 165, (11R)-6-(2,6-Dimethylphenyl)-11-isobutyl-7-isopropoxy-2,2-dioxo-9-oxa-2λ^6-thia-3,5,12,19-tetrazatricyclo[12.3.1.14,8]nonadeca-1(18),4(19),5,7,14,16-hexaen-13-one], in series [4], the ring closure, yield after HPLC was 8%. In series [3], the “Ent. A Max Activity” value is listed as “+++ (+++ is >60%)”. Besides, the EC50 in series [3] and in series [5] (read-out: Ent. B EC50) was below 1000 nM throughout. Further, the “Ent. B Max Activity” value in series [5] was “+++ (+++ is >60%)”.
In the case of `CCc1c2nc(nc1-c1ccccc1OCC(C)C)NS(=O)(=O)c1cccc(c1)NC(=O)c1cccc(c1)O2` [Compound 26], in series [1], the EC50 was below 1000 nM and the Emax was above 60%. Also, in series [3], the “Ent. A Max Activity” value is “+ (+ is <30%)” and the EC50 was 1000 to 3000 nM.
On to `CCc1c2nc(nc1-c1ccccc1C(C)C)NS(=O)(=O)c1cccc(c1)NC(=O)c1cccc(c1)O2` [Compound 16], for which, in series [1], the EC50 was below 1000 nM and the Emax was above 60%. For the same molecule, in series [3], the “Ent. A Max Activity” value is on record as “+++ (+++ is >60%)” and the EC50 is below 1000 nM.
With `CCc1c2nc(nc1-c1ccccc1C(C)C)NS(=O)(=O)c1cccc(c1)NC(=O)c1cccc(c1C)O2` [Compound 15], in series [1], the EC50 was below 1000 nM and the Emax was above 60%. In series [3], the “Ent. A Max Activity” value is recorded as “+++ (+++ is >60%)” and the concentration for a half-maximal effect (EC50) is below 1000 nM.
For `CCc1c2nc(nc1-c1ccccc1CN(C)C)NS(=O)(=O)c1cccc(c1)NC(=O)c1cccc(c1)O2` [Compound 10], in series [1], the Emax was below 30%.
